Experimental findings from patent US20250197343A1, “CATIONIC LIPID” (TAKEDA PHARMACEUTICAL COMPANY LIMITED, priority 2021, published 2025) are described below.

Series [1] is described as follows: Rate of encapsulation of Luc DNA in lipid nanoparticles. In kind it is physicochemical. Details: unit: %. As to conditions: Luc DNA-encapsulated lipid nanoparticles; cationic lipid:DPPC:cholesterol:GM-020=60:10.6:28:1.4 molar ratio. An excerpt:
The concentration and rate of encapsulation of the nucleic acid (e.g., siRNA or mRNA) in the composition of the present invention can be measured by a known approach. For example, the nucleic acid is fluorescently labeled using Quant-iT™ RiboGreen® (Invitrogen Corp.), and the fluorescence intensity can be measured to determine the concentration and the rate of encapsulation. The concentration of the nucleic acid in the composition can be calculated using a calibration curve prepared from aqueous nucleic acid solutions having known concentrations. The rate of encapsulation can be calculated on the basis of the difference in fluorescence intensity between the presence and absence of addition of Triton-X 100 (surfactant for disrupting the lipid particle). The concentration of the nucleic acid in the composition refers to the total concentration of a nucleic acid encapsulated in the lipid particle and an unencapsulated nucleic acid. The rate of encapsulation refers to the ratio of the nucleic acid encapsulated in the lipid particle to all nucleic acids in the composition.
(§1) A lipid mixture containing a cationic lipid of the Examples shown in Table 2 (cationic lipid:DPPC:cholesterol:GM-020=60:10.6:28:1.4, molar ratio) was dissolved in 90% of EtOH and 10% of water to obtain a 15.0 mg/ml lipid solution. Luciferase (luc) DNA (manufactured by Nature Technology Corp.) was dissolved in a 10 mM MES buffer solution (pH 5.5) to obtain a 0.3 mg/ml nucleic acid solution. The obtained lipid solution and nucleic acid solution were mixed at a flow rate ratio of 3 ml/min:6 ml/min at room temperature using NanoAssemblr (manufactured by Precision NanoSystems Inc.) to obtain a dispersion containing Luc DNA-encapsulated lipid nanoparticles. The obtained dispersion was dialyzed against water at room temperature for 1 hour and against PBS at 4° C. for 23 hours using Slyde-A-Lyzer (molecular weight cutoff: 20 K, Thermo Fischer Scientific Inc.). Subsequently, the dialysate was filtered through a 0.2 µm syringe filter (Iwaki). A 60% solution of sucrose in PBS was added thereto, and the mixture was preserved as a 20% solution of sucrose in PBS at −80° C. Analysis results of particle size and rate of encapsulation of the Luc DNA-encapsulated lipid nanoparticles are also shown in Table 2.

Series [2] can be described thus: Particle size of Luc DNA-encapsulated lipid nanoparticles. It counts as physicochemical. As to conditions: cationic lipid:DPPC:cholesterol:GM-020=60:10.6:28:1.4 molar ratio.
From the text: The particle size of the lipid particle (in the composition) can be measured by a known approach. For example, the particle size can be calculated as a Z-average particle size by the cumulant analysis of an autocorrelation function using a particle size measurement apparatus Zetasizer Nano ZS (Malvern Instruments) based on a dynamic light scattering measurement technique. The particle size (average particle size) of the lipid particle (in the composition) is, for example, 10 to 200 nm, preferably 60 to 170 nm.
as §1

Another series deals with ICrl:CD1 (ICR) mice. In words: Mouse bioluminescence imaging evaluation (Test Example 1). In kind it is in vivo. As to conditions: Luc DNA-encapsulated lipid nanoparticles 10 mL/kg i.v. to ICR mice; IVIS total flux 15 minutes after luciferin i.p. The method, then: The Luc DNA-encapsulated lipid nanopatricles obtained in the aforesaid Production Example were intravenously administered to the tails of ICrl:CD1 (ICR) mice (10 mL/kg i.v.). After administration of the lipid particles, luciferin (15 mg/mL) was administered to the mice (10 mL/kg i.p.), which were loaded in an IVIS (in vivo imaging system) apparatus (manufactured by PerkinElmer, Inc.) under isoflurane inhalation anesthesia. Luminescence images of the mice were taken ventrally (in a supine position) 15 minutes after luciferin administration. The luminescence was digitized with the software of IVIS, followed by evaluation using the value of total flux. Higher luminescence means strong expression of the protein encoded by the DNA encapsulate in the lipid particle. In Table 2, higher luminescence is indicated on a scale of A, B and C in order. A represents luminescence of 3.0E+07 or more, B represents luminescence of 1.0E+0.7 or more and less than 3.0E+07, and C represents luminescence of less than 1.0E+07.

`CCCCCCCOC(=O)CCCCC(=O)OCC(COC(=O)CCCCC(=O)OCCCCCCC)(COC(=O)CCN(C)C)COC(=O)CC(CCCCC)CCCCC` [Example 12, 1,1′-(2-{[(N,N-Dimethyl-beta-alanyl)oxy]methyl}-2-{[(3-pentyloctanoyl)oxy]methyl}propane-1,3-diyl) 6,6′-diheptyl dihexanedioate]: the Rate of encapsulation in series [1] was determined as 95.7. Also, the “Particle size (nm)” value in series [2] came to 89.5 nm. The Luminescence entry in the series on ICrl:CD1 (ICR) mice is reported as “C (C represents luminescence of less than 1.0E+07)”.

As to `CCCCCCCOC(=O)CCCCC(=O)OCC(COC(=O)CCCCC(=O)OCCCCCCC)(COC(=O)CCCN(CC)CC)COC(=O)CC(CCCCC)CCCCC` [Example 14, 1,1′-[2-{{[4-(Diethylamino)butanoyl]oxy}methyl)-2-{[(3-pentyloctanoyl)oxy]methyl}propane-1,3-diyl] 6,6′-diheptyl dihexanedioate], in series [1], the Rate of encapsulation is recorded as 94.7. In addition, the “Particle size (nm)” value in series [2] is 145.0 nm. Further, in the series on ICrl:CD1 (ICR) mice, the Luminescence entry was “A (A represents luminescence of 3.0E+07 or more)”.

As for `CCCCCCCOC(=O)CCCCC(=O)OCC(COC(=O)CCN(C)C)(COC(=O)CC(CCCCC)CCCCC)COC(=O)CC(CCCCC)CCCCC` [Example 15, 2-{[(N,N-Dimethyl-beta-alanyl)oxy]methyl}-3-[(3-pentyloctanoyl)oxy]-2-{[(3-pentyloctanoyl)oxy]methyl}propyl heptyl hexanedioate], the Rate of encapsulation in series [1] is 95.9. Also, the “Particle size (nm)” value in series [2] was determined as 89.5 nm. For the same compound, the Luminescence result in the series with ICrl:CD1 (ICR) mice is “C (C represents luminescence of less than 1.0E+07)”.

With `CCCCCCCOC(=O)CCCCC(=O)OCC(COC(=O)CCCN(C)C)(COC(=O)CC(CCCCC)CCCCC)COC(=O)CC(CCCCC)CCCCC` [Example 16, 2-({[4-(Dimethylamino)butanoyl]oxy}methyl)-3-[(3-pentyloctanoyl)oxy]-2-{[(3-pentyloctanoyl)oxy]methyl}propyl heptyl hexanedioate], in series [1], the Rate of encapsulation worked out at 97.0. Further, the “Particle size (nm)” value in series [2] is listed as 98.4 nm. For the same compound, the Luminescence entry in the series with ICrl:CD1 (ICR) mice is “B (B represents luminescence of 1.0E+0.7 or more and less than 3.0E+07)”.

For the compound `CCCCCCCOC(=O)CCCCC(=O)OCC(COC(=O)CCCN(CC)CC)(COC(=O)CC(CCCCC)CCCCC)COC(=O)CC(CCCCC)CCCCC` [Example 17, 2-({[4-(Diethylamino)butanoyl]oxy}methyl)-3-[(3-pentyloctanoyl)oxy]-2-{[(3-pentyloctanoyl)oxy]methyl}propyl heptyl hexanedioate], in series [1], the Rate of encapsulation amounted to 96.2. Moreover, in series [2], the “Particle size (nm)” value was determined as 120.7 nm. For the same compound, the Luminescence entry in the series with ICrl:CD1 (ICR) mice was “B (B represents luminescence of 1.0E+0.7 or more and less than 3.0E+07)”.

Consider `CCCCCC(CCCCC)CC(=O)OCC(COC(=O)CCCCC(=O)OCCCC)(COC(=O)CCN(C)C)COC(=O)CC(CCCCC)CCCCC` [Example 19, Butyl 2-{[(N,N-dimethyl-beta-alanyl)oxy]methyl}-3-[(3-pentyloctanoyl)oxy]-2-{[(3-pentyloctanoyl)oxy]methyl}propyl hexanedioate], for which, in series [1], the Rate of encapsulation is 95.4. In series [2], the “Particle size (nm)” value came to 89.8 nm. In addition, in the series with ICrl:CD1 (ICR) mice, the Luminescence result was “B (B represents luminescence of 1.0E+0.7 or more and less than 3.0E+07)”.

On to `CCCCCC(CCCCC)CC(=O)OCC(COC(=O)CCCCC(=O)OCCCC)(COC(=O)CCCN(C)C)COC(=O)CC(CCCCC)CCCCC` [Example 20, Butyl 2-({[4-(dimethylamino)butanoyl]oxy}methyl)-3-[(3-pentyloctanoyl)oxy]-2-{[(3-pentyloctanoyl)oxy]methyl}propyl hexanedioate], for which, in series [1], the Rate of encapsulation worked out at 97.2. For the same compound, the “Particle size (nm)” value in series [2] came to 104.2 nm. Moreover, the Luminescence result with ICrl:CD1 (ICR) mice is “B (B represents luminescence of 1.0E+0.7 or more and less than 3.0E+07)”.

With `CCCCCC(CCCCC)CC(=O)OCC(COC(=O)CCCCC(=O)OCCCC)(COC(=O)CCCN(CC)CC)COC(=O)CC(CCCCC)CCCCC` [Example 21, Butyl 2-({[4-(diethylamino)butanoyl]oxy}methyl)-3-[(3-pentyloctanoyl)oxy]-2-{[(3-pentyloctanoyl)oxy]methyl}propyl hexanedioate], the Rate of encapsulation in series [1] turned out to be 96.2. The “Particle size (nm)” value in series [2] worked out at 131.4 nm. For the same compound, the Luminescence result with ICrl:CD1 (ICR) mice was “B (B represents luminescence of 1.0E+0.7 or more and less than 3.0E+07)”.

On to `CCCCCCCOC(=O)CCCCC(=O)OCC(COC(=O)CCCN(C)C)(COC(=O)CC(CCC)CCCCCCC)COC(=O)CC(CCC)CCCCCCC` (stereo not drawn) [Example 31, 2-({[4-(Dimethylamino)butanoyl]oxy}methyl)-3-[(3-propyldecanoyl)oxy]-2-{[(3-propyldecanoyl)oxy]methyl}propyl heptyl hexanedioate], for which the Rate of encapsulation in series [1] stood at 97.1. The “Particle size (nm)” value in series [2] is 97.9 nm. The Luminescence result with ICrl:CD1 (ICR) mice was “A (A represents luminescence of 3.0E+07 or more)”.

Turning to `CCCCCC(CCCCC)CC(=O)OCC(COC(=O)CCCCCCCC(=O)OCCCC)(COC(=O)CCCCCCCC(=O)OCCCC)COC(=O)CCCN(C)C` [Example 33, 1,1′-Dibutyl 9,9′-[2-({[4-(dimethylamino)butanoyl]oxy}methyl)-2-{[(3-pentyloctanoyl)oxy]methyl}propane-1,3-diyl] dinonanedioate], the Rate of encapsulation in series [1] is reported as 89.9. For the same compound, the “Particle size (nm)” value in series [2] turned out to be 145.7 nm. For the same compound, in the series on ICrl:CD1 (ICR) mice, the Luminescence entry is “B (B represents luminescence of 1.0E+0.7 or more and less than 3.0E+07)”.

On to `CCCCCC(CCCCC)CC(=O)OCC(COC(=O)CCCCCCCC(=O)OCCCC)(COC(=O)CCCN(C)C)COC(=O)CC(CCCCC)CCCCC` [Example 34, Butyl 2-({[4-(dimethylamino)butanoyl]oxy}methyl)-3-[(3-pentyloctanoyl)oxy]-2-{[(3-pentyloctanoyl)oxy]methyl}propyl nonanedioate], for which the Rate of encapsulation in series [1] is 52.7. Also, the “Particle size (nm)” value in series [2] is reported as 184.3 nm. In addition, the Luminescence entry in the series on ICrl:CD1 (ICR) mice was “C (C represents luminescence of less than 1.0E+07)”.

Consider `CCCCCC(CCCCC)CC(=O)OCC(COC(=O)CCCCCCCC(=O)OC)(COC(=O)CCCCCCCC(=O)OC)COC(=O)CCCN(C)C` [Example 35, 1,1′-[2-({[4-(Dimethylamino)butanoyl]oxy}methyl)-2-{[(3-pentyloctanoyl)oxy]methyl}propane-1,3-diyl] 9,9′-dimethyl dinonanedioate], for which the Rate of encapsulation in series [1] is given as 96.1. Also, the “Particle size (nm)” value in series [2] is listed as 95.1 nm. In the series on ICrl:CD1 (ICR) mice, the Luminescence entry was “B (B represents luminescence of 1.0E+0.7 or more and less than 3.0E+07)”.

Take `CCCCCC(CCCCC)CC(=O)OCC(COC(=O)CCCCCCCC(=O)OC)(COC(=O)CCCN(C)C)COC(=O)CC(CCCCC)CCCCC` [Example 36, 2-({[4-(Dimethylamino)butanoyl]oxy}methyl)-3-[(3-pentyloctanoyl)oxy]-2-{[(3-pentyloctanoyl)oxy]methyl}propyl methyl nonanedioate]: in series [1], the Rate of encapsulation worked out at 95.1. In addition, the “Particle size (nm)” value in series [2] turned out to be 127.9 nm. Moreover, the Luminescence entry in the series on ICrl:CD1 (ICR) mice was “B (B represents luminescence of 1.0E+0.7 or more and less than 3.0E+07)”.

In the case of `CCCCCC(CCCCC)COC(=O)CCC(=O)OCC(COC(=O)CCCCN(C)C)(COC(=O)CCC(=O)OCC(CCCCC)CCCCC)COC(=O)CCC(=O)OCC(CCCCC)CCCCC` [Example 38, 1,1′ {2-({[5-(Dimethylamino)pentanoyl]oxy}methyl)-2-[({4-oxo-4-[(2-pentylheptyl)oxy]butanoyl}oxy)methyl]propane-1,3-diyl} 4,4′-bis(2-pentylheptyl) dibutanedioate], the Rate of encapsulation in series [1] is recorded as 95.2. In series [2], the “Particle size (nm)” value came out at 131.3 nm. The Luminescence entry in the series with ICrl:CD1 (ICR) mice was “A (A represents luminescence of 3.0E+07 or more)”.
